Source: patent US20200337311A1 (priority 2017, published 2020)

System: Meloidogyne incognita
Experiment: Meloidogyne incognita (root-knot nematode) in vitro test
Conditions: 300 ppm; 50 juveniles in 500 μL water, 25° C.; counted at 48, 72 and 96 h; no mortality in untreated check
Description: Example 1: Meloidogyne incognita (Root-Knot Nematode): In Vitro Test
The test compounds at a concentration of 300 ppm were introduced into 500 μL of distilled water containing 50 Meloidogyne incognita juveniles into 24-well plates. The suspension was lightly shaken for uniform mixing of compounds. The test plates were covered with lids, and were kept for incubation at 25° C. temperature and 90% relative humidity. […] Compounds
(§1) Meloidogyne incognita: In Vivo Test

Structure (SMILES) | mortality
CO/N=C/c1cnc(SCCC=C(F)F)o1 [Compound 290] | > 90%

System: Meloidogyne incognita
Experiment: Meloidogyne incognita in vivo test on cucumber plants (gall rating)
Conditions: 300 ppm; soil application to cucumber seedlings; 15 days after application; untreated check up to 8
Description: as §1
Cucumber plants were grown in seedling tray containing mixture of Sand:Soil:FYM:Cocopeat in ratio of 1:1:1:1. One mL of test compound at tested concentration was applied into the soil mixture with the help of micropipette when the cucumber seedlings ten days old. Approximately 2000 freshly hatched second-stage juveniles of Meloidogyne incognita were inoculated. The treated plants were allowed to grow at 27° C. temperature in greenhouse. Observation of gall rating was recorded after 15 days of application. Plants were carefully uprooted and roots were washed thoroughly. The gall rating was observed on 0-10 scale as described by Zeck (1971) as mentioned below: • 0=no galls • 1=very few small galls • 2=numerous small galls • 3=numerous small galls of which some are grown together • 4=numerous small and some big galls • 5=25% of roots severely galled • 6=50% of roots severely galled • 7=75% of roots severely galled • 8=no healthy roots but plant is still green • 9=roots rotting and plant dying • 10=plant and roots dead
recorded less than 3 gall rating in the tests, where there was extensive galling (up to 8) in untreated check.

Structure (SMILES) | gall rating (0-10 scale, Zeck 1971)
CCO/N=C\c1cnc(SCCC(F)=C(F)F)o1 [Compound 13] | < 3
CCO/N=C/c1cnc(S(=O)(=O)CCC(F)=C(F)F)s1 [Compound 23] | < 3
CC(C)CCO/N=C/c1cnc(SCCC(F)=C(F)F)s1 [Compound 34] | < 3
CCO/N=C/c1cnc([S+]([O-])CCC(F)=C(F)F)o1 (stereo not drawn) [Compound 36] | < 3
CO/N=C(\C)c1cnc(S(=O)(=O)CCC(F)=C(F)F)s1 [Compound 53] | < 3
[O-][S+](CCC(F)=C(F)F)c1ncc(/C=N\OCC2CC2)o1 (stereo not drawn) [Compound 103] | < 3
CO/N=C(\C)c1cnc([S+]([O-])CCC(F)=C(F)F)o1 (stereo not drawn) [Compound 130] | < 3
CCO/N=C(\C)c1cnc(SCCC(F)=C(F)F)o1 [Compound 132] | < 3
CO/N=C(/C)c1cnc(S(=O)(=O)CCC(F)=C(F)F)o1 [Compound 134] | < 3
Cc1csc(S(=O)(CCC(F)=C(F)F)=NC#N)n1 (stereo not drawn) [Compound 183] | < 3
[O-][S+](CCC(F)=C(F)F)c1ncc(-c2ncon2)s1 (stereo not drawn) [Compound 213] | < 3
CCO/N=C\c1cnc(S(=O)(=O)CCC=C(F)F)s1 [Compound 233] | < 3
CO/N=C/c1cnc(SCCC=C(F)F)s1 [Compound 234] | < 3
CO/N=C\c1cnc(SCCC=C(F)F)s1 [Compound 235] | < 3
CO/N=C\c1cnc(S(=O)(=O)CCC=C(F)F)s1 [Compound 236] | < 3
CCO/N=C/c1cnc(S(=O)(=O)CCC=C(F)F)s1 [Compound 237] | < 3

Structure (SMILES) | gall rating (0-10 scale, Zeck 1971)
CO/N=C/c1oc(SCCC(F)=C(F)F)nc1C [Compound 238] | < 3
CO/N=C(/c1oc([S+]([O-])CCC(F)=C(F)F)nc1C)C(C)C (stereo not drawn) [Compound 273] | < 3
[O-][S+](CCC(F)=C(F)F)c1ncc(C(F)F)s1 (stereo not drawn) [Compound 326] | < 3
N#Cc1cnc(SCCC(F)=C(F)F)s1 [Compound 327] | < 3
N#Cc1cnc([S+]([O-])CCC(F)=C(F)F)s1 (stereo not drawn) [Compound 328] | < 3
O=S(=O)(CCC(F)=C(F)F)c1ncc(C(F)F)s1 [Compound 329] | < 3
FC(F)=C(F)CCSc1ncc(C(F)F)o1 [Compound 330] | < 3
N#Cc1cnc(SCCC(F)=C(F)F)o1 [Compound 331] | < 3
N#Cc1cnc(S(=O)(=O)CCC(F)=C(F)F)s1 [Compound 332] | < 3
N#Cc1cnc([S+]([O-])CCC(F)=C(F)F)o1 (stereo not drawn) [Compound 333] | < 3
Cc1nc([S+]([O-])CCC(F)=C(F)F)sc1C(F)F (stereo not drawn) [Compound 337] | < 3
Cc1nc([S+]([O-])CCC(F)=C(F)F)sc1C#N (stereo not drawn) [Compound 338] | < 3
Cc1nc(S(=O)(=O)CCC(F)=C(F)F)sc1C#N [Compound 339] | < 3
Cc1nc(S(=O)(=O)CCC(F)=C(F)F)sc1C(F)F [Compound 340] | < 3
Cc1nc([S+]([O-])CCC(F)=C(F)F)oc1C#N (stereo not drawn) [Compound 348] | < 3
Cc1nc(S(=O)(=O)CCC(F)=C(F)F)oc1C(F)F [Compound 350] | < 3
